Results on 23 compounds are retold here after the supplement of paper PMC5412046.

Broadly, the viability is a read-out of living cells in per cent, often relative to untreated cells.

Assay [1] concerns SB.msgc-1. The experiment in a line: area under the dose-response curve of % viability (trapezoidal, 11 doses) (% viability x log10 concentration); higher = less cytotoxic. The conditions noted are these: SB.msgc-1 (sporadic gastric cancer). Summed up: (§1)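 The values represent viability normalised to DMSO, expressed at the highest concentration or as trapezoidal area under the curve. Cells were hereditary or sporadic patient-derived gastric cancer cells, 500 in 5 μL medium per 1536 well. They were dosed with 23 nL of compound in DMSO by pintool over 11 threefold dilutions, with each compound's top concentration recorded. CellTiter-Glo was applied 48 h later for 30 min at room temperature before luminescence was read on a ViewLux.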

Assay [2] deals with SB.mhdgc-1. The assay is described as above. As to conditions: SB.mhdgc-1 (hereditary c.1380delA CDH1 gastric cancer). Summed up:
as §1

The subject of assay [3] is SB.msgc-1. Briefly: viability at highest tested concentration (MAXR) relative to DMSO; higher = less cytotoxic. As to conditions: SB.msgc-1 (sporadic gastric cancer). Summed up:
as §1

For assay [4], the system named is SB.mhdgc-1. The assay is described as above. The conditions noted are these: SB.mhdgc-1 (hereditary c.1380delA CDH1 gastric cancer). Summed up: as §1

Turning to `CCN1CCN(C(=O)Cc2ccc(Nc3ncc(F)c(Nc4ccc(C(=O)Nc5ccccc5Cl)cc4)n3)cc2)CC1` [Aurora A Inhibitor I] (top concentration 46.0829 µM), the “area under the dose-response curve” value in assay [1] amounted to 470; in assay [2] it was 396. Moreover, the viability in assay [3] was 2.06%; in assay [4] it was 0.759%.

`CC(=O)N1CCN(c2ccc(OC[C@H]3CO[C@](Cn4ccnc4)(c4ccc(Cl)cc4Cl)O3)cc2)CC1` [Ketoconazole] (top concentration 46.0829 µM): the “area under the dose-response curve” value in assay [1] worked out at 536; in assay [2], 532. Also, the viability worked out at 53.7% in assay [3] and 49.6% in assay [4].

For the compound `CN(c1nccc(=O)[nH]1)C1CCN(c2nc3ccccc3n2Cc2ccc(F)cc2)CC1` [Mizolastine] (top concentration 46.0829 µM), the “area under the dose-response curve” value in assay [1] worked out at 467; in assay [2], 519. The viability in assay [3] stood at 31.2%; in assay [4], 64.6%.

Turning to `Cc1ccc(Nc2cc(-c3cccc(N4C(=O)c5ccccc5C4=O)c3)ncn2)cc1N[S+](C)(=O)[O-]` [CDK9 inhibitor] (top concentration 46.0829 µM), the “area under the dose-response curve” value in assay [1] was found to be 492; in assay [2] it was 423. The viability in assay [3] amounted to 31.5%; in assay [4] it was 43.4%.

As for `OC(CN1CCN(c2cccc(Cl)c2)CC1)C(c1ccccc1)c1ccccc1` (configuration not stated) (top concentration 46.0829 µM), the “area under the dose-response curve” value stood at 489 in assay [1] and 501 in assay [2]. In addition, the viability was found to be 51.9% in assay [3] and 52.9% in assay [4].

In the case of `CCNC(=O)CCC/C=C\C[C@@H]1[C@@H](/C=C/C(O)CCc2ccccc2)[C@@H](O)C[C@@H]1O` (some centres not stated) [Bimatoprost] (top concentration 46.0829 µM), the “area under the dose-response curve” value in assay [1] amounted to 552; in assay [2], 559. Besides, the viability in assay [3] turned out to be 95.7%; in assay [4] it was 62.2%.

For the compound `CCCCCCCN(CC)CCCC(O)c1ccc(NS(C)(=O)=O)cc1.CCCCCCCN(CC)CCCC(O)c1ccc(NS(C)(=O)=O)cc1.O=C(O)/C=C/C(=O)O` (configuration not stated) [Ibutilide fumarate] (top concentration 46.0829 µM), the “area under the dose-response curve” value in assay [1] was determined as 569; in assay [2], 523. Moreover, the viability in assay [3] turned out to be 64.3%; in assay [4] it was 37.1%.

Turning to `C[C@]1(O)CC(C1)C2=NC(=C3[N]2C=CN=C3N)C4=CC5=C(C=C4)C=CC(=N5)C6=CC=CC=C6` (configuration not stated) [Linsitinib] (top concentration 46.0829 µM), the “area under the dose-response curve” value in assay [1] stood at 448; in assay [2] it was 475. Further, the viability was found to be 35.1% in assay [3] and 31.5% in assay [4].

As for `NCC(=O)Nc1ccc(-n2nc(C(F)(F)F)cc2-c2ccc3c(ccc4ccccc43)c2)cc1` (top concentration 46.0829 µM), the “area under the dose-response curve” value in assay [1] was 472; in assay [2] it was 496. Further, the viability is 10.9% in assay [3] and 0.199% in assay [4].

Consider `CN(C)CCOc1ccc(/C(=C(/CCCl)c2ccccc2)c2ccccc2)cc1` [Toremifene] (top concentration 46.0829 µM), for which the “area under the dose-response curve” value is 477 in assay [1] and 432 in assay [2]. For the same compound, the values for the viability in assay [3] and in assay [4] were 1.34% and 3.26%, respectively.

For `Cc1nc2cnc3ccc(C#Cc4cccnc4)cc3c2n1-c1ccc(C(C)(C)C#N)cc1` [BAG-956] (top concentration 46.0829 µM), the “area under the dose-response curve” value in assay [1] stood at 343; in assay [2], 207. Besides, the results for the viability in assay [3] and in assay [4] were 25.4% and 0.508%, respectively.

As to `CN1CCN(c2c(F)cc3c(=O)c(C(=O)O)cn(CCF)c3c2F)CC1` [Fleroxacin] (top concentration 46.0829 µM), the “area under the dose-response curve” value in assay [1] is 527; in assay [2], 497. Further, the viability in assay [3] is 80.3%; in assay [4], 106%.

As for `C[C@]12CC[C@H]3[C@@H](CC[C@@]45O[C@@H]4C(O)=C(C#N)C[C@]35C)[C@@H]1CC[C@@H]2O` [Trilostane] (top concentration 46.0829 µM), the “area under the dose-response curve” value worked out at 374 in assay [1] and 478 in assay [2]. Also, the viability in assay [3] worked out at 39.4%; in assay [4], 13%.

Regarding `CC/1=C(\O)C(=O)\C=C2/C1=C/C=C3\[C@@]2(C)CC[C@@]4(C)[C@@H]5C[C@@](C)(CC[C@]5(C)CC[C@]34C)C(O)=O` [Tripterin] (top concentration 46.0829 µM), the “area under the dose-response curve” value in assay [1] worked out at 353; in assay [2], 448. Also, the figures for the viability in assay [3] and in assay [4] were 2.44% and 5.12%, respectively.

Turning to `C[N+](C)([O-])CCNc1ccc(NCC[N+](C)(C)[O-])c2c1C(=O)c1c(O)ccc(O)c1C2=O` [Banoxantrone] (top concentration 46.0829 µM), the “area under the dose-response curve” value amounted to 492 in assay [1] and 483 in assay [2]. In addition, the viability in assay [3] amounted to 65.6%; in assay [4], 34.8%.

As for `CC(C)[C@]12O[C@H]1[C@@H]3O[C@@]34[C@@]5(C)CC\C6=C(COC6=O)/[C@@H]5C[C@@H]7O[C@]47[C@@H]2O` [Triptolide] (top concentration 46.0829 µM), the “area under the dose-response curve” value in assay [1] was found to be 235; in assay [2], 302. Besides, the viability in assay [3] amounted to 48%; in assay [4], 61.6%.

`CC[C@H](CO)Nc1nc(NCc2ccccc2)c2ncn(C(C)C)c2n1` [Seliciclib] (top concentration 46.0829 µM): the “area under the dose-response curve” value amounted to 505 in assay [1] and 413 in assay [2]. In addition, the figures for the viability in assay [3] and in assay [4] were 33.7% and 42.5%, respectively.

In the case of `OC1=C(Cl)C=C(N\C2=C(\C(=O)NC2=O)C3=C(C=CC=C3)[N+]([O-])=O)C=C1` (top concentration 46.0829 µM), the “area under the dose-response curve” value in assay [1] was 490; in assay [2], 415. For the same compound, the results for the viability in assay [3] and in assay [4] were 53.3% and 76.5%, respectively.

`COc1ccc2cc3[n+](cc2c1OC)CCc1cc2c(cc1-3)OCO2` [Berberine] (top concentration 46.0829 µM): the “area under the dose-response curve” value in assay [1] amounted to 476; in assay [2], 462. Besides, the values for the viability in assay [3] and in assay [4] were 50% and 37.7%, respectively.

On to `CO[C@H]1C[C@H]2OC[C@@]2(OC(C)=O)[C@H]3[C@H](OC(=O)C4=CC=CC=C4)[C@]5(O)C[C@H](OC(=O)[C@H](O)[C@@H](NC(=O)OC(C)(C)C)C6=CC=CC=C6)/C(=C(/[C@@H](OC)C(=O)[C@]13C)C5(C)C)C` [Cabazitaxel] (top concentration 46.0829 µM), for which the “area under the dose-response curve” value in assay [1] was found to be 163; in assay [2], 204. The viability stood at 35.7% in assay [3] and 33.5% in assay [4].

For the compound `COC1=CC=C(C=N1)C/2=C/C3=C(C)N=C(N)N=C3N(C4CCC(CC4)OCCO)C2=O` (configuration not stated) (top concentration 46.0829 µM), the “area under the dose-response curve” value amounted to 311 in assay [1] and 238 in assay [2]. For the same compound, the viability in assay [3] is 33.6%; in assay [4], 28.8%.

In the case of `CC(NC1=CC=CC=C1)C\2=C\C(=C/N3C(=O)\C=C(/N=C23)N4CCOCC4)C` (configuration not stated) [TGX-221] (top concentration 46.0829 µM), the results for the “area under the dose-response curve” value in assay [1] and in assay [2] were 428 and 324, respectively. Moreover, the viability stood at 47.8% in assay [3] and 34.9% in assay [4].

`O=C(CCc1ccc(O)cc1)c1c(O)cc(O)cc1O` [Phloretin] (top concentration 46.0829 µM): the results for the “area under the dose-response curve” value in assay [1] and in assay [2] were 380 and 415, respectively. The figures for the viability in assay [3] and in assay [4] were 55.4% and 55.6%, respectively.
